The values that follow come from patent US20200407712A1, “ARRAY-BASED CYCLIC PEPTIDE LIBRARIES” (HealthTell Inc., priority 2018, published 2020).

Data set [1] in a line: intramolecular disulfide formation by ambient air oxidation of bis-Cys peptides on SiO2 array surface after side-chain deprotection (TFA/TMS-OTf) and NH3-gas DKP detachment; fraction oxidized from MALDI relative peak intensities. The settings on record: the molecule shown is the open-chain precursor, none (dry film on SiO2, ambient air), other, 18.0 h, scale: fraction oxidized.

Data set [2] deals with Rituximab. The data set is described as follows: Rituximab binding to biotinyl peptides captured on streptavidin ELISA plates. The settings on record: streptavidin ELISA plate; Rituximab 66.0 to 0.03 nM; absorbance at 450 nm. As to the method: To confirm Rituximab binding to the sequences identified in Example 22, the peptides in Table 1 were prepared by Fmoc-based solid phase synthesis. Peptides were biotinylated at either the N-terminal or through the […] side chain with a long chain biotin (LCBiot). Biotinylated peptides were bound to streptavidin ELISA plates. Rituximab in PBST was applied to the array in a dilution series ranging from 66.0 to 0.03 nM using three-fold dilution steps. Plates were incubated for 1 hr at 37° C. and washed 3× with PBST. An anti-human IgG-HRP conjugate was applied to the array at 1.0 μg/mL for 1 hr at 37° C. Plates were washed 3× with PBST and TMB substrate applied for 15 min at 37° C. followed by 2N HCl to stop the reaction. Absorbance was read at 450 nm and the median of triplicate wells plotted against mAb concentration in FIG. 19. Rituximab bound constrained peptide HTP115 but not linear version HTP113 or a constrained sequence with LCBiot at the N-terminal (HTP114). Rituximab also binds to HTP116, a biotinylated version of a cyclic disulfide sequence previously reported to bind to Rituximab (Perosa et al. Blood, 2006, 107 (3), 1070-1077).

Data set [3] relates to Rituximab. The data set is described as follows: Rituximab binding to constrained peptide arrays. As to the method:
Cyclized and linear microarrays from Click and lactam wafers were probed using a seven point dilution series of Rituximab (Creative Diagnostics, TAB-016) ranging from 24.0 nM to 0.032 nM with threefold steps. Bound Rituximab was detected using an anti-human IgG-Alexa Fluor™ 555 (Thermo-Fisher) at 4.0 nM. All incubation times were for 1 hr and washes between incubation steps were conducted using Phosphate Buffered Saline with 0.05% Tween 20 (PBST). After the secondary detection step, slides were sequentially washed using PBST, distilled water and a 90% isopropanol rinse. Slides were immediately dried by centrifugation following the isopropanol rinse. Imaged arrays were gridded using commercial software to extract intensities from individual features. Data was analyzed using a custom R script. For both chemistries tested, 24.0 nM Rituximab gave the greatest differential between linear and cyclic copies of the same peptide (present on the same array) and was used for example boxplots. […] In the peptide sequence, B and X represent lactam cyclization residues Lys and Glu respectively. Individual feature replicates for BAEANPSX (cyclic) and BAEANPS (linear) from replicate arrays assayed on two separate slides were used to prepare the boxplot. A p-value comparing the replicate feature intensities was calculated using the anova function in R.

With `COc1cc(OC)c([P+](CC(=O)N[C@@H](CS)C(=O)N[C@H](C(=O)N[C@@H](Cc2c[nH]cn2)C(=O)N[C@@H](CS)C(=O)NCCCC[C@@H]2NC(=O)[C@@H]3CCCN3C2=O)[C@@H](C)O)(c2c(OC)cc(OC)cc2OC)c2c(OC)cc(OC)cc2OC)c(OC)c1`, in data set [1] (14-membered ring), the ring closure, fraction oxidized by MALDI was 0.78.

Molecule `COc1cc(OC)c([P+](CC(=O)N[C@@H](CCCCN)C(=O)N[C@@H](CS)C(=O)N[C@@H](CS)C(=O)N[C@@H](CC(C)C)C(=O)NCCCC[C@@H]2NC(=O)[C@@H]3CCCN3C2=O)(c2c(OC)cc(OC)cc2OC)c2c(OC)cc(OC)cc2OC)c(OC)c1` came in with a ring closure, fraction oxidized by MALDI in data set [1] (8-membered ring) of 0.78.

Molecule `COc1cc(OC)c([P+](CC(=O)N[C@@H](CCCCN)C(=O)N[C@@H](CS)C(=O)N2CCC[C@H]2C(=O)NCC(=O)N[C@@H](CS)C(=O)N[C@@H](CC(C)C)C(=O)NCCCC[C@@H]2NC(=O)[C@@H]3CCCN3C2=O)(c2c(OC)cc(OC)cc2OC)c2c(OC)cc(OC)cc2OC)c(OC)c1` registered a ring closure, fraction oxidized by MALDI in data set [1] (14-membered ring) of 0.73.

`COc1cc(OC)c([P+](CC(=O)N[C@@H](CS)C(=O)N[C@H](C(=O)N2CCC[C@H]2C(=O)NCC(=O)N[C@@H](Cc2c[nH]cn2)C(=O)N[C@@H](CS)C(=O)NCCCC[C@@H]2NC(=O)[C@@H]3CCCN3C2=O)[C@@H](C)O)(c2c(OC)cc(OC)cc2OC)c2c(OC)cc(OC)cc2OC)c(OC)c1` registered a ring closure, fraction oxidized by MALDI in data set [1] (20-membered ring) of 0.79.

Molecule `COc1cc(OC)c([P+](CC(=O)N[C@@H](CS)C(=O)N[C@@H](CCC(N)=O)C(=O)N2CCC[C@H]2C(=O)NCC(=O)N[C@@H](Cc2ccc(O)cc2)C(=O)N[C@@H](CS)C(=O)NCCCC[C@@H]2NC(=O)[C@@H]3CCCN3C2=O)(c2c(OC)cc(OC)cc2OC)c2c(OC)cc(OC)cc2OC)c(OC)c1` displayed a ring closure, fraction oxidized by MALDI in data set [1] (20-membered ring) of 0.75.

`COc1cc(OC)c([P+](CC(=O)N[C@@H](Cc2ccc(O)cc2)C(=O)N[C@@H](CS)C(=O)N2CCC[C@H]2C(=O)NCC(=O)N[C@@H](CS)C(=O)N[C@@H](CO)C(=O)NCCCC[C@@H]2NC(=O)[C@@H]3CCCN3C2=O)(c2c(OC)cc(OC)cc2OC)c2c(OC)cc(OC)cc2OC)c(OC)c1` gave a ring closure, fraction oxidized by MALDI in data set [1] (14-membered ring) of 0.76.

In data set [1] (20-membered ring), `COc1cc(OC)c([P+](CC(=O)N[C@@H](CS)C(=O)N[C@H](C(=O)N[C@@H](CCC(N)=O)C(=O)N[C@@H](Cc2c[nH]cn2)C(=O)N[C@@H](Cc2ccc(O)cc2)C(=O)N[C@@H](CS)C(=O)NCCCC[C@@H]2NC(=O)[C@@H]3CCCN3C2=O)[C@@H](C)O)(c2c(OC)cc(OC)cc2OC)c2c(OC)cc(OC)cc2OC)c(OC)c1` showed a ring closure, fraction oxidized by MALDI of 0.75.

On to “LCBiot-ACPYANPSLC amide (cyclic disulfide) [HTP116, reference compound]”, for which the “Rituximab binding to biotinyl peptide” value in the data set with Rituximab [2] is given as “binds”.

The molecule `COc1cc(OC)c([P+](CC(=O)N[C@@H](CCCCN)C(=O)N[C@@H](CS)C(=O)N[C@H](C(=O)N2CCC[C@H]2C(=O)NCC(=O)N[C@@H](Cc2c[nH]cn2)C(=O)N[C@@H](CS)C(=O)N[C@@H](CC(C)C)C(=O)NCCCC[C@@H]2NC(=O)[C@@H]3CCCN3C2=O)[C@@H](C)O)(c2c(OC)cc(OC)cc2OC)c2c(OC)cc(OC)cc2OC)c(OC)c1` came in with a ring closure, fraction oxidized by MALDI in data set [1] (20-membered ring) of 0.63.

Consider `COc1cc(OC)c([P+](CC(=O)N[C@@H](Cc2ccc(O)cc2)C(=O)N[C@@H](CS)C(=O)N[C@@H](CS)C(=O)N[C@@H](CO)C(=O)NCCCC[C@@H]2NC(=O)[C@@H]3CCCN3C2=O)(c2c(OC)cc(OC)cc2OC)c2c(OC)cc(OC)cc2OC)c(OC)c1`, for which the ring closure, fraction oxidized by MALDI in data set [1] (8-membered ring) came out at 0.7.

In data set [1] (8-membered ring), `COc1cc(OC)c([P+](CC(=O)N[C@@H](CS)C(=O)N[C@@H](CS)C(=O)NCCCC[C@@H]2NC(=O)[C@@H]3CCCN3C2=O)(c2c(OC)cc(OC)cc2OC)c2c(OC)cc(OC)cc2OC)c(OC)c1` [TMPP-Ac-Cys-Cys-DKP [DKP = N-epsilon of cyclo(Lys-Pro)]] returned a ring closure, fraction oxidized by MALDI of 0.8.

Take BAEANPSX: the “change of Rituximab binding upon Click cyclization” value with Rituximab [3] (cyclic versus linear feature, Click array) was “not”. For the same molecule, in the data set on Rituximab [3] (cyclic versus linear feature, lactam array), the “change of Rituximab binding upon lactam based cyclization” value is given as “increases”. In addition, in the data set with Rituximab [3] (lactam array, 24.0 nM Rituximab), the “Rituximab binding on lactam array (rank among binders)” value is “amongst the top Rituximab binders”.

As to LCBiot-cyclo[KeAEANPSQ] [HTP114], the “Rituximab binding to biotinyl peptide” value in the data set with Rituximab [2] is on record as “not”.

As to `COc1cc(OC)c([P+](CC(=O)N[C@@H](CS)C(=O)N[C@@H](CCC(N)=O)C(=O)N[C@@H](Cc2ccc(O)cc2)C(=O)N[C@@H](CS)C(=O)NCCCC[C@@H]2NC(=O)[C@@H]3CCCN3C2=O)(c2c(OC)cc(OC)cc2OC)c2c(OC)cc(OC)cc2OC)c(OC)c1`, the ring closure, fraction oxidized by MALDI in data set [1] (14-membered ring) came to 0.72.

In the case of cyclo[KεAEANPSQ(LCBiot)] amide [HTP115], in the data set on Rituximab [2], the “Rituximab binding to biotinyl peptide” value is recorded as “bound”.

On to LCBiot-K(Ac)AEANPSQ amide [HTP113], for which, in the data set on Rituximab [2], the “Rituximab binding to biotinyl peptide” value is “not”.
